Assays:
[1] = biological target: T1, α4β1 integrin (Jurkat T-cell adhesion to IL-1 stimulated endothelial cell monolayers) (Homo sapiens, UniProt P05556+P13612); experiment: Jurkat-endothelial cell adhesion assay (Jurkat EC); type: cell-based; details: Jurkat cells on IL-1 stimulated human umbilical vein endothelial cells; read-out: JK/EC (Jurkat EC Assay IC50 value range)
T1 construct: a T-cell line, Jurkat, known to express the α4β1 integrin; host or cells: Jurkat T-cell line
Protocol: Jurkat-endothelial Cell Adhesion Assay:
The following assay established the activity of the present compounds in inhibiting β1-mediated cell adhesion in a representative in vitro system. This assay measures the adhesive interactions of a T-cell line, Jurkat, known to express the α4β1 integrin, to endothelial monolayers in the presence of test compounds. The test compounds were added in increasing concentrations to T-cells and then the T-cell compound mixture was added to IL-1 stimulated endothelial cell monolayers. The plates were incubated, washed and the percentage of attached cells was quantitated.
Human umbilical vein endothelial cells were purchased from Clonetics (San Diego, Calif.) at passage number 2. The cells were grown on 0.5% porcine skin gelatin pre-coated flasks (Sigma, St. Louis Mo.) in EGM-UV media (Clonetics, San Diego, Calif.) supplemented with 10% fetal bovine serum. Cells are refed every 2-3 days reaching confluence by day 4 to 6. […] The endothelial cells are not used following passage 6.
The T-cell line Jurkat was obtained from American Type Tissue Culture Collection (Rockville, Md.) and the cells were cultured in RPMI containing 10% fetal calf serum. The cells were washed twice in Hank's Balanced Salt Solution (HBSS) and resuspended in Dulbecco's Minimal Eagle's Media (DMEM) containing 2.5 mg/ml Human Serum Albumin (HSA). Jurkat cells (1×10^6 cells/ml) were stained with 10 ng/ml BCECF-AM (Molecular Probes, Eugene, Oreg.)) in HBSS without phenol red. The cells were loaded with BCECF for 60 minutes in the dark at 370C, washed 2 times, and resuspended in DMEM-HSA solution.
Confluent endothelial monolayers, grown in 96-well tissue culture plates, were stimulated for 4 hr. at 37° C. with 0.1 ng/ml (˜50 U/ml) recombinant IL-1 (Amgen, Thousand Oaks, Calif.). Following this incubation, the monolayers were washed twice with HBSS and 0.1 ml of DMEM−HSA solution was added. Jurkat cells (5×10^5 cells) were combined with the appropriate concentration of the test compound and 0.1 ml of the Jurkat cell-compound mixture was added to the endothelial cell monolayers. Generally, 100, 20, 5 and 1.25 μM compound concentrations were tested. […] The plates were placed on ice for 5 minutes to allow for Jurkat cell settling and the plates were incubated at 37° C. for 20 minutes. Following this incubation, the monolayers were washed twice with PBS containing 1 mM calcium chloride and 1 mM magnesium chloride and the plates were read using a Millipore Cytofluor 2300 (Marlboro, Mass.). Fluorescence in each well was measured as Arbitrary Fluorescence Units and percent adhesion in the absence of compound was adjusted to 100% and the % adhesion in the presence of compound was calculated. Monolayers were also fixed in 3% paraformaldehyde and evaluated microscopically to verify the adhesion. This procedure is a modification of a previously published method (Cardarelli et al., J. Biol. Chem. 269:18668-18673 (1994)).

[2] = biological target: T2, α4β1 integrin (Jurkat cell adhesion to immobilized CS-1 derived peptide CLHPGEILDVPST) (Homo sapiens, UniProt P05556+P13612); experiment: Jurkat-CS-1 assay; type: cell-based; details: Jurkat cells on CS-1 peptide coated plates; read-out: JK/CS-1 (Jurkat CS-1 Assay IC50 value range)
T2 construct: 100 μl of Jurkat cells (2.5×10^6 cells/ml) in DMEM plus BSA; host or cells: Jurkat T-cell line
Protocol: The CS-1 derived peptide, CLHPGEILDVPST, and the scrambled control peptide, CLHGPIELVSDPT, were synthesized on a Beckman 990 synthesizer using t-Boc methodology. The peptides were immobilized onto microtiter plates using the heterobifunctional crosslinker 3-(2-pyridyldithio)propionic acid N-hydroxysuccinimide ester (SPDP) as reported by Pierschbacher et al., Proc. Natl. Acad. USA, 80:1224-1227 (1983). Microtiter plates were coated with 20 μg/ml HSA for 2 hr. at room temperature, washed once with PBS and derivatized with 10 μg/ml SPDP for 1 hr. After washing, 100 μl of a 100 μg/ml cysteine containing peptide solution which had been recently dissolved was added to the wells and allowed to crosslink to the plates overnight at 4° C. Unbound peptide was removed from plates by washing with PBS. To block non-reacted sites, the plates are coated with 100 μl of a 2.5 mg/ml BSA solution in PBS for 1 hr. at 37° C. 100 μl of Jurkat cells (2.5×10^6 cells/ml) in DMEM plus BSA (2.5 mg/ml) was mixed with an appropriate concentration of the compound to be tested and the mixture was added to peptide coated dishes and incubated for 1 hr. at 37° C. Generally 100, 20, 5 and 1.25 μM concentrations of the compound were tested.
Following this incubation the plates were washed once with PBS and the attached cells were fixed with 3% paraformaldehyde in PBS and stained with 0.5% toluidine blue in 3.7% formaldehyde. The cells were stained overnight at room temperature and the optical density at 590 nm of toluidine blue stained cells was determined using a vertical pathway spectrophotometer to quantitate attachment (VMAX Kinetic Microplate Reader, Molecular Devices, Menlo Park, Calif.). This procedure is a modification of a previously published method (Cardarelli et al, J. Biol. Chem., 269:18668-18673 (1994) and Cardarelli et al, Proc. Natl. Acad. Sci. USA, 83:2647-2651 (1986)).

T1 sequence (P13612 34-1032): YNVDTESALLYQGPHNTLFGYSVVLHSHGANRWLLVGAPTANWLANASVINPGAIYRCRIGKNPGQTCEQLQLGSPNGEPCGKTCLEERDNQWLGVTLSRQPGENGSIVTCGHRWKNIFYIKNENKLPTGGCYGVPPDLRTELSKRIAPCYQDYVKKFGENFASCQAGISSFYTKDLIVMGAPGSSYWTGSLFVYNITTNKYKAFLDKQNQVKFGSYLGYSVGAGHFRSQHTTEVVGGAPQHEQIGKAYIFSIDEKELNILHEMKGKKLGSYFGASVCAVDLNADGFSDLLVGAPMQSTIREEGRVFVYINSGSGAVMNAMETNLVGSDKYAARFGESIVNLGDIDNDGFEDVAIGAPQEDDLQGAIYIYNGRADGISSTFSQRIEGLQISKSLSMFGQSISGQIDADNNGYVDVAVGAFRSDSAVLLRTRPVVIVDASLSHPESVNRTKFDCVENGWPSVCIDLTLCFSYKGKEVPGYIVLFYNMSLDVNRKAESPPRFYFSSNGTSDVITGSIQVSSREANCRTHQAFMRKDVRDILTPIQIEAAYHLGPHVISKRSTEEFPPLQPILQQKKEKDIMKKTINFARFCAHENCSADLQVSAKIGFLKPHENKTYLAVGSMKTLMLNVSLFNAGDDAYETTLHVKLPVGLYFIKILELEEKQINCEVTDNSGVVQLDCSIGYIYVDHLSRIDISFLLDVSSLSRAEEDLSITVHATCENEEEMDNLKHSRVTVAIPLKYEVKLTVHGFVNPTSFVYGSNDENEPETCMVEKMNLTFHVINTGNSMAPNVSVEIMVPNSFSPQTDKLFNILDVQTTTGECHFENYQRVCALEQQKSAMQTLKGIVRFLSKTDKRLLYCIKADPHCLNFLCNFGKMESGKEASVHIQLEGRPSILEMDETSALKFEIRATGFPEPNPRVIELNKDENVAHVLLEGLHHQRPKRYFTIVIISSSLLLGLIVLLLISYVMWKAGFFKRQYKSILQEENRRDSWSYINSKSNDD
T1 sequence (P05556 21-798): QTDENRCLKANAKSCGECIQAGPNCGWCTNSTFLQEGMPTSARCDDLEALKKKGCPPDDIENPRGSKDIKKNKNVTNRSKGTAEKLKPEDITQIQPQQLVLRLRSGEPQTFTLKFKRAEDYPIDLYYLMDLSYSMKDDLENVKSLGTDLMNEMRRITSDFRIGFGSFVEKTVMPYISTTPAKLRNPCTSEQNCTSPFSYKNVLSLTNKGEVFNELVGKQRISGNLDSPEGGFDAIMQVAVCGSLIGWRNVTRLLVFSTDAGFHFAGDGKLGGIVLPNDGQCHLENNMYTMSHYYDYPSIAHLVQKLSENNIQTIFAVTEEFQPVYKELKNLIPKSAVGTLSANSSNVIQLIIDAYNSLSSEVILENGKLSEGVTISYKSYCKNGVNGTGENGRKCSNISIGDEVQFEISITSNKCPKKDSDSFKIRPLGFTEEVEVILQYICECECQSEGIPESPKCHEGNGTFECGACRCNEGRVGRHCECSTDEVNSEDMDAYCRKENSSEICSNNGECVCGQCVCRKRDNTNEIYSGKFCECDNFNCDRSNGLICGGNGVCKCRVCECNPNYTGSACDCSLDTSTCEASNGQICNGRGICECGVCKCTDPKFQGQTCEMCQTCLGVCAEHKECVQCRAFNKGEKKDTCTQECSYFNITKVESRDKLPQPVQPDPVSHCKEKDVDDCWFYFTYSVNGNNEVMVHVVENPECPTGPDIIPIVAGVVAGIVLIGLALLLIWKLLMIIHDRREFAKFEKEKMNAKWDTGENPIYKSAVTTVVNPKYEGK
T2 sequence (P13612 34-1032): as the sequence (P13612 34-1032) above
T2 sequence (P05556 21-798): as the sequence (P05556 21-798) above

COC(=O)[C@H](Cc1ccc(OCc2c(Cl)cccc2Cl)cc1)NC(=O)[C@H]1CSCN1C(C)=O [Example 65, N-[[(4S)-3-Acetyl-4-thiazolidinyl]carbonyl]-O-[(2,6-dichlorophenyl)methyl]-L-tyrosine Methyl Ester]
IC50 [1]: ≥ 1000 nM
IC50 [2]: 50 to 750 nM

CCS(=O)(=O)N1CSC[C@@H]1C(=O)N[C@@H](Cc1ccc(NC(=O)c2c(Cl)cccc2Cl)cc1)C(=O)O [Example 43]
IC50 [1]: ≤ 250 nM
IC50 [2]: ≤ 50 nM

[2R-[1(R*),2α,4β(S*)]]-4-[[[1-Carboxy-2-[4-[(2,6-dichlorobenzoyl)amino]phenyl]-ethyl]-amino]carbonyl]-1-(1-phenylethyl)-2-azetidinecarboxylic Acid Dilithium Salt [Example 135]
IC50 [1]: 250 to 1000 nM
IC50 [2]: 50 to 750 nM

CN(C)c1cccc2c(S(=O)(=O)N3CSC[C@@H]3C(=O)N[C@@H](Cc3ccc(NC(=O)c4c(Cl)cccc4Cl)cc3)C(=O)O)cccc12 [Example 49, 4-[(2,6-Dichlorobenzoyl)amino]-N-[[(4S)-3-[[5-(dimethylamino)-1-naphthalenyl]sulfonyl]-4-thiazolidinyl]carbonyl]-L-phenylalanine]
IC50 [1]: ≥ 1000 nM
IC50 [2]: ≥ 750 nM

COC(=O)[C@H](Cc1ccc(NC(=O)c2c(Cl)cccc2Cl)cc1)NC(=O)[C@H]1CSCN1S(=O)(=O)c1cccc2c(N(C)C)cccc12 [Example 48, 4-[(2,6-Dichlorobenzoyl)amino]-N-[[(4S)-3-[[5-(dimethylamino)-1-naphthalenyl]sulfonyl]-4-thiazolidinyl]carbonyl]-L-phenylalanine Methyl Ester]
IC50 [1]: ≥ 1000 nM
IC50 [2]: ≥ 750 nM

COC(=O)[C@H](Cc1ccc(NC(=O)c2c(Cl)cccc2Cl)cc1)NC(=O)[C@@H]1CSCCN1 [Example 97]
IC50 [1]: ≥ 1000 nM
IC50 [2]: ≥ 750 nM

O=C(NO)[C@H](Cc1ccc(OCc2c(Cl)cccc2Cl)cc1)NC(=O)[C@H]1CSCN1C(=O)OCCN1CCOCC1 [Example 91]
IC50 [1]: ≥ 1000 nM
IC50 [2]: ≥ 750 nM

CC1(C)SCN(C(=O)CCC(=O)O)[C@H]1C(=O)N[C@@H](Cc1ccc(NC(=O)c2c(Cl)cccc2Cl)cc1)C(=O)O (relative stereo) [Example 63, [S-(R*,R*)]-4-[[[1-Carboxy-2-[4-[(2,6-dichlorobenzoyl)amino]phenyl]ethyl]amino]carbonyl]-5,5-dimethyl-δ-oxo-3-thiazolidinebutanoic Acid]
IC50 [1]: ≤ 250 nM
IC50 [2]: ≤ 50 nM

CCOC(=O)N1C(c2ccncc2)SC[C@@H]1C(=O)N[C@@H](Cc1ccc(NC(=O)c2c(Cl)cccc2Cl)cc1)C(=O)O (stereo partly drawn) [Example 283, (4S)-4-[[[(1S)-1-Carboxy-2-[4-[(2,6-dichlorobenzoyl)amino]phenyl]ethyl]amino]carbonyl]-2-(4-pyridinyl)-3-thiazolidinecarboxylic Acid 3-Ethyl Ester]
IC50 [2]: 50 to 750 nM

CCOC(=O)N1CSC[C@@H]1C(=O)N[C@@H](Cc1ccc(NC(=O)Nc2c(Cl)cccc2Cl)cc1)C(=O)O [Example 277, (4S)-4-[[[(1S)-1-Carboxy-2-[4-[[[(2,6-dichlorophenyl)amino]carbonyl]amino]phenyl]ethyl]amino]carbonyl]-3-thiazolidinecarboxylic Acid 3-Ethyl Ester]
IC50 [2]: ≥ 750 nM

CCOC(=O)N1CSC[C@@H]1C(=O)N[C@@H](Cc1ccc(NC(=O)c2ccccc2C(F)(F)F)cc1)C(=O)O [Example 274, (4S)-4-[[[(1S)-1-Carboxy-2-[4-[[2-(trifluoromethyl)benzoyl]amino]phenyl]ethyl]amino]carbonyl]-3-thiazolidinecarboxylic Acid 3-Ethyl Ester]
IC50 [2]: 50 to 750 nM

O=C(Nc1ccc(C[C@H](NC(=O)C2CS[C@@H]3CNC(=O)N23)C(=O)O)cc1)c1c(Cl)cccc1Cl (stereo partly drawn) [Example 280, 4-[(2,6-Dichlorobenzoyl)amino]-N-[[(7aR)-hexahydro-5-oxoimidazo[5,1-b]thiazol-3-yl]carbonyl]-L-phenylalanine]
IC50 [2]: 50 to 750 nM

CCOC(=O)N1CSC[C@@H]1C(=O)N[C@@H](Cc1ccc(NC(C)=O)cc1)C(=O)O [Example 269, (4S)-4-[[[(1S)-1-Carboxy-2-[4-[(acetyl)amino]phenyl]ethyl]amino]carbonyl]-3-thiazolidinecarboxylic Acid 3-Ethyl Ester]
IC50 [2]: ≥ 750 nM

CCOC(=O)N1CSC[C@@H]1C(=O)N[C@@H](Cc1ccc(NC(=O)c2cccnc2)cc1)C(=O)O [Example 271, (4S)-4-[[[(1S)-1-Carboxy-2-[4-[(3-pyridinylcarbonyl)amino]phenyl]ethyl]amino]carbonyl]-3-thiazolidinecarboxylic Acid 3-Ethyl Ester]
IC50 [2]: 50 to 750 nM

CCOC(=O)N1CSC[C@@H]1C(=O)N[C@@H](Cc1ccc(NC(=O)c2ccccc2)cc1)C(=O)O [Example 268, (4S)-4-[[[(1S)-1-Carboxy-2-[4-[(benzoyl)amino]phenyl]ethyl]amino]carbonyl]-3-thiazolidinecarboxylic Acid 3-Ethyl Ester]
IC50 [2]: ≥ 750 nM

O=C(Nc1ccc(C[C@H](NC(=O)C2CSC3COC(=O)N32)C(=O)O)cc1)c1c(Cl)cccc1Cl (single isomer, unassigned) [Example 281, 4-[(2,6-Dichlorobenzoyl)amino]-N-[(tetrahydro-5-oxo-5H-thiazolo[3,2-c]oxazol-3-yl)carbonyl]-L-phenylalanine]
IC50 [2]: 50 to 750 nM

CN1CCN(CCOC(=O)N2CSC[C@@H]2C(=O)N[C@@H](Cc2ccc(OCc3c(Cl)cccc3Cl)cc2)C(N)=O)CC1 [Example 287, (4S)-4-[[[(1S)-2-Amino-1-[[4-[(2,6-dichlorophenyl)methoxy]phenyl]methyl]-2-oxoethyl]amino]carbonyl]-3-thiazolidinecarboxylic Acid 3-[2-(4-Methyl-1-piperazinyl)ethyl]ester]
IC50 [2]: 50 to 750 nM

CCOC(=O)N1CSC[C@@H]1C(=O)N[C@@H](Cc1ccc(NS(=O)(=O)c2cc(Cl)ccc2Cl)cc1)C(=O)O [Example 276, (4S)-4-[[[(1S)-1-Carboxy-2-[4-[[(2,5-dichlorophenyl)sulfonyl]amino]phenyl]ethyl]amino]carbonyl]-3-thiazolidinecarboxylic Acid 3-Ethyl Ester]
IC50 [2]: ≥ 750 nM

CCOC(=O)N1CSC[C@@H]1C(=O)N[C@@H](Cc1ccc(NC(=O)c2c(Cl)cc(Cl)cc2Cl)cc1)C(=O)O [Example 275, (4S)-4-[[[(1S)-1-Carboxy-2-[4-[(2,4,6-trichlorobenzoyl)amino]phenyl]ethyl]amino]-carbonyl]-3-thiazolidinecarboxylic Acid 3-Ethyl Ester]
IC50 [2]: ≤ 50 nM

From patent publication US6685617B1, “Inhibitors of α4β1 mediated cell adhesion” (Pharmacia & Upjohn Company, priority 1998, dated 2004)
